The values below come from patent US7754742B2, “Imidazole carboxamides” (Eli Lilly and Company, priority 2008, dated 2010).

The term EC50 denotes the concentration at which the effect is half-maximal. Usually melting point stands for the temperature of the solid-liquid transition.

One data set deals with T1, human mGluR2 receptor (Homo sapiens, UniProt Q14416).
T1 construct: expressed in transfected cells; stably expresses human mGluR2, co-transfected with rat EAAT1 and Galpha15
Description: Functional in vitro activity at human mGluR2 receptor (FLIPR calcium response, potentiator mode). It counts as cell-based. The conditions noted are these: relative EC50; potentiation of glutamate EC10 response; cells expressing human mGluR2, rat EAAT 1 and Gα15.

Data set [1] deals with Male Holtzman Sprague-Dawley rats. Description: Positive differential reinforcement in rats (DRL-72 second schedule). It counts as in vivo, rat. The conditions noted are these: reinforced responses divided by total responses, 10 mg/kg, IP, dose 0 group 0.25. An excerpt: The differential reinforcement of low rates-72 second (DRL-72) schedule has been extensively used as a screen for clinically effective antidepressant agents including imipramine, fluoxetine, paroxetine and others (Sokolowski J D, Seiden L S. 1999. The behavioral effects of sertraline, fluoxetine, and paroxetine differ on the differential-reinforcement-of-low-rate 72-second operant schedule in the rat. Psychopharm (Berl). 147(2): 153-61). […] As such, compounds which show positive result in differential reinforcement in animals are believed to be useful in treating depression in humans.
Male Holtzman Sprague-Dawley rats are water restricted (water available 20′ per day following the test session) and trained to lever press for a 4″ access to 0.025 ml of water for each correct response during daily 60 minute sessions. All testing takes place on weekdays only. After successful lever press training, rats are then required to respond under a DRL-24 second schedule, where only lever presses that are separated by 24 seconds are reinforced. Upon stable responding on a DRL-24 second schedule, rats are trained on a DRL-72 second schedule until responding stabilizes at approximately 15% efficiency. […] Response efficiency is recorded as number of reinforced responses divided by total number of responses. […]

The subject of the next data set is Male Fischer F-344 rats. Description: Attenuation of stress-induced hyperthermia in rats. The conditions noted are these: p.o., 4 hr pretreatment. It counts as in vivo, rat. An excerpt: In many anxiety disorders, hyperthermia occurs as part of the pathology and is considered a symptom of the disease. Compounds which attenuate stress-induced hyperthermia in animals are believed to be useful in treating anxiety disorders in humans.
The conventional and minimally-invasive method for analyzing stress-induced hyperthermia is by measuring body temperature, and stress-induced increases in body temperature, via rectal thermometer. Male Fischer F-344 rats (Harlan, Indianapolis, Ind., USA) weighing between 275-350 g are tested. All animals are individually-housed with food and automated water available ad libitum, and maintained on a 12 h light/dark cycle (lights on at 06:00). Animals are fasted for approximately 12-18 hours before the experiment, which is conducted during the light phase. […]
After the pretreatment period, rats are taken individually to a brightly lit adjacent room where baseline body temperatures are determined by insertion of a rectal probe lubricated with mineral oil. Body temperature is assessed using a PHYSITEMP BAT-12® Microprobe Thermometer with a PHYSITEMP RET-2® rat rectal probe (Physitemp Instruments Inc., Clifton, N.J., USA). […] Ten minutes later a second body temperature measurement is recorded (T2). […]

T1 sequence (Q14416 19-872): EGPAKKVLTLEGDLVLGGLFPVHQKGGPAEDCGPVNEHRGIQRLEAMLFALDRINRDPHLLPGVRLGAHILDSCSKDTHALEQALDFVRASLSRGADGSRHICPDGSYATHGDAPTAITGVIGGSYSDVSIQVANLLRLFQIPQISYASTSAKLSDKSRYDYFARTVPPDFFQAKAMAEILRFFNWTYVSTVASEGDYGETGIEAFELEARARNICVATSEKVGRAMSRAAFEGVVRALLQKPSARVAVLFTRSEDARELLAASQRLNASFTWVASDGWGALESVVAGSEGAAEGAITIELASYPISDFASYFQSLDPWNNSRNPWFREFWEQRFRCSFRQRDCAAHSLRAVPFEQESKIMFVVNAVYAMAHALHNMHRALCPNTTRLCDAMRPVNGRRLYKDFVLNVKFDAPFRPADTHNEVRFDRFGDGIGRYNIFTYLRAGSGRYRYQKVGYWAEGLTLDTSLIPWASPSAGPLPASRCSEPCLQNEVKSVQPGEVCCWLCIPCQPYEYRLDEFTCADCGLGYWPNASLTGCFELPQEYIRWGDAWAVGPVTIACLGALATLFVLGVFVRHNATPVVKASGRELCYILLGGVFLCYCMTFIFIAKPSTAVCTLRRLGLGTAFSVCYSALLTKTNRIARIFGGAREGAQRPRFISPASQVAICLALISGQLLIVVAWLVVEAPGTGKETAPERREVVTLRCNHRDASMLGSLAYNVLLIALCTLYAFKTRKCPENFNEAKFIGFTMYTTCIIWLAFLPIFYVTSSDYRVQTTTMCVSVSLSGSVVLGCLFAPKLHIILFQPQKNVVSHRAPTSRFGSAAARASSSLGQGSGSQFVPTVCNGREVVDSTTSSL
Description for human mGluR2 receptor: Functional in vitro activity at human mGluR2 receptor Cell lines stably expressing the human mGluR2 receptor (see for example Desai, Burnett, Mayne, Schoepp, Mol. Pharmacol. 48, 648-657, 1995) co-transfected with the rat glutamate transporter EAAT 1 (Excitatory Amino Acid Transporter 1) and the Gα15 subunit were used for these studies. The expression of Gα15 allows this Gi-coupled receptors to couple to phospholipase C, resulting in the ability to measure receptor activation by a fluorometric calcium response assay. […]
Intracellular calcium levels were monitored before and after the addition of compounds using a Fluorometric Imaging Plate Reader (FLIPR, Molecular Devices, Union City, Calif. USA). […] The results were analyzed (GraphPad® Prism v4, Graphpad Software, LaJolla, Calif., USA) to calculate the concentrations of glutamate needed to induce the EC10 responses.
Compounds were tested in a two-addition FLIPR assay using a 10-point concentration response profile starting at a final concentration of 25 μM (agonist mode) or 12.5 μM (potentiator mode). […] After taking an initial fluorescent read of the cell plate for 5 seconds, compound was added to the cell plate (50 uL per well). […]
The maximal response was defined as that induced by ECmax (100 μM glutamate). […] Agonist effects were quantified as percent stimulation induced by compound alone relative to the maximal glutamate response. […]

As to `CC(C)C(=O)c1ccc(OCc2ccc(CNC(=O)c3cn(C)cn3)cc2)c(C(F)(F)F)c1O` [Example 1, 1-Methyl-1H-imidazole-4-carboxylic acid 4-(3-hydroxy-4-isobutyryl-2-trifluoromethyl-phenoxymethyl)-benzylamide], the melting point is 164.7 °C. In addition, on human mGluR2 receptor, the concentration giving a half-maximal response (EC50) was 22.5 nM. For the same molecule, in data set [1], the “Response Efficiency” value came out at 0.56. Besides, the “T35 dose (dose producing a 35% reduction in stress-induced hyperthermic response relative to vehicle)” value in the data set on Male Fischer F-344 rats came to 3.2 mg/kg.
